Data published in EP1031349A1, “Use of substituted 4-biarylbutyric and 5-biarylpentanoic acid derivatives for the treatment of cerebral diseases” (Bayer Aktiengesellschaft, priority 1999, dated 2000).
pKi: −log10 of the molar value. Where two headings read alike, the source gives them in different places.

Tests used:
[1] = target: MMP-3 (Homo sapiens, UniProt P08254); assay: Automated MMP profiling assay (P218 quenched fluorescence), MMP-3; assay type: biochemical
Method: Truncated Prostromelysin-257 is expressed in a soluble form in E.coli as described by Marcy et al., Biochemistry, 30, 6476-6483, 1991. Soluble truncated prostromelysin is purified by a modification of the monoclonal antibody affinity chromatography method described by Housley et al., J. Biol. Chem., 268, 4481-87, 1993.
This assay was originally described by Knight et al., FEBS Letters, 296, 263-266, 1992, for a related substrate. The assay is run continuously in a 3.0ml cuvette using a Perkin-Elmer LS 50 B Spectrofluorimeter at 25 ^∞C in a final volume of 2.0 mls. P218 substrate (10mM) in 100% DMSO is diluted to a final concentration of 2.0 micromolar (µM) into assay buffer: 50mM MES, pH 6.5 containing 150mM NaCl, 10mM CaCl2, 0.005% Brij-35, and 1%(v/v) DMSO. Test compounds(10mM) in DMSO are diluted in assay buffer at an initial concentration of 10 to 100 micromolar. These are diluted to a final concentration in the assay from 10 nM to 1 µM depending upon their potency previously determined in primary thiopeptilide assay described above. The reaction is initiated by the addition of recombinant stromelysin (MMP-3) at a final concentration of 1.0 nM. Upon peptide cleavage, the fluorescent MCA group is detected using an excitation wavelength of 328 nanometers and an emission wavelength of 393 nanometers. The assay is linear from 0.2 to 5nM MMP-3 concentration and percent inhibition is calculated as described above for the primary thiopeptilide assay and IC50 values are determined by a linear regression analysis of percent inhibition versus log drug concentration. The peptide sequence of the MCA substrate, hereinafter designated P218, is shown below: [formula]
This assay is run with a protocol analogous to that reported for MMP-3 inhibition using the synthetic peptide P218 and each of the three enzymes and measuring quenched fluorescence. This assay can be run with each invention compound with the three enzymes MMP-3, MMP-9 and MMP-2 in parallel as adapted for a 96-well microtitre plate using a Hamilton AT ® workstation.

[2] = target: T1, MMP-2 (Homo sapiens, UniProt P08253); assay: Automated MMP profiling assay (P218 quenched fluorescence), MMP-2; assay type: biochemical
T1 sequence (P08253 110-660): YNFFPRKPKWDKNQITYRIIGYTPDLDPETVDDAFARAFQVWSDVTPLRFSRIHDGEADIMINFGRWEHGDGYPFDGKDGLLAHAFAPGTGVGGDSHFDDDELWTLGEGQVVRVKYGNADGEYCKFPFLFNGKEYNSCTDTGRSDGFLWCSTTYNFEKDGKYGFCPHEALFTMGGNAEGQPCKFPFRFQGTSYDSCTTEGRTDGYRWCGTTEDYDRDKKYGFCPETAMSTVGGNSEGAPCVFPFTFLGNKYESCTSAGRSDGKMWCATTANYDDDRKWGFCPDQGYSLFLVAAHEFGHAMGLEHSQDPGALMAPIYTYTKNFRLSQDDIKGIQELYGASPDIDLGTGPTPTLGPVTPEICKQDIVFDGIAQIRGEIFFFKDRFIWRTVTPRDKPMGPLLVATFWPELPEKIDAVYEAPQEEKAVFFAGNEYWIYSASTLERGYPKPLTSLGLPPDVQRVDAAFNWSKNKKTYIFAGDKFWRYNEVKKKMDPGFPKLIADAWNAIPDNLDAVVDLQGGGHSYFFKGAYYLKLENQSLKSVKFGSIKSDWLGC

[3] = target: MMP-9 (Homo sapiens, UniProt P14780); assay: Automated MMP profiling assay (P218 quenched fluorescence), MMP-9; assay type: biochemical
Method: MMP-9 is isolated modifying the previously described procedures of Hibbs et al (J. Biol. Chem., 260, 2493-2500, 1984) and Wilhelm et al (J. Biol. Chem., 264, 17213-17221, 1989). Briefly, polymorphonuclear leukocytes (PMN) preparations are isolated as described above from 3 or more units of freshly drawn whole blood. Cells are resuspended in phosphate buffered saline (PBS) containing 100 ng/ml phorbol myristate acetate (PMA) in the presence of […] di-isopropylfluorophospate (DFP), 1 µg/ml leupeptin and aprotinin, and 1 mg/ml catalase for 1 hr at 37°C. Supernatants are collected by centrifugation (300 x g) and the samples are frozen at-70°C. All chromatographic methods are performed at 4°C. Thawed samples are concentrated 5-fold using an Amicon chamber equipped with a YM-10 membrane. The concentrate is pressure dialyzed against 0.02M Tris-HCl, 0.1 M NaCl, 1 mM CaCl2 , 1 µM ZnCl2, 0.001% Brij-35, 0.02% sodium azide (NaN3), pH 7.5 and applied to DEAE ion exchange chromatography resin which is previously equilibrated with the same buffer at a flow rate of 0.4 ml/min. The column is extensively washed with the same buffer and gelatinase is eluted as 4 ml fractions from the column with 0.02M Tris-HCl, 0.5 M NaCI, 1 mM CaCl2, 1 µM ZnCl2, 0.001% Brij-35, 0.02% NaN3, pH 7.5. Gelatinase containing fractions are observed by gelatin zymography (see below), loaded onto a gelatin agarose affinity resin and washed with the same buffer. […] The protein content associated with material is determined with a micro-BCA assay (Pierce, Rockford, IL), lyophilized and reconstituted to a desired working concentration (100 µg/ml).
This assay was originally described by Knight et al., FEBS Letters, 296, 263-266, 1992, for a related substrate. […] Upon peptide cleavage, the fluorescent MCA group is detected using an excitation wavelength of 328 nanometers and an emission wavelength of 393 nanometers. […]
This assay is run with a protocol analogous to that reported for MMP-3 inhibition using the synthetic peptide P218 and each of the three enzymes and measuring quenched fluorescence. […]

[4] = target: T2, MMP-1 (Homo sapiens, UniProt P03956); assay: Automated MMP profiling assay (P218 quenched fluorescence), MMP-1; assay type: biochemical
T2 sequence (P03956 100-469): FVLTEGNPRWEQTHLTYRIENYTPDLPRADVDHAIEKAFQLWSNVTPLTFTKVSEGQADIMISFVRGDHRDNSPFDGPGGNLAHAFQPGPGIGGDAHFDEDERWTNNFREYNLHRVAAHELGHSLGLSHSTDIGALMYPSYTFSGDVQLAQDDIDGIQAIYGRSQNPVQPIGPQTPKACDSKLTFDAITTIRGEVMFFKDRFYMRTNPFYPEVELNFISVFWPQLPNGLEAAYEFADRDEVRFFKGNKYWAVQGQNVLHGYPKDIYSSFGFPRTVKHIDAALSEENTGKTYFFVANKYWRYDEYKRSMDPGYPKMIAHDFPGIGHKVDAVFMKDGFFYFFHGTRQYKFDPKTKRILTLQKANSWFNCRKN

[5] = test system: Wistar rats; assay: Subdural hematoma (SDH) model in rats, quantification of edema formation; assay type: in vivo; settings: rat-SDH- model, dose of 0.3 mg/kg i.v., edema assessed 24 hours after surgery
Method: Wistar rats, weighting 200-250 g were used. Anaesthesia was induced with i.p. injection of 1.2 ml Ketavet (120 mg Ketamin) and 0.8 ml Rompun™ (2% Xylancin) per animal. Body temperatures were maintained at 37°C by means of a rectal thermometer and a heating system.
A midline scalp incision was made and the saggital and coronal sutures identified. A burr hole 3 mm in diameter was drilled 2 mm to the left of the saggital suture and 1 mm posterior to the coronal suture. Using an operating microscope, the dura was incised and a blunt, pre-manufactured plastic tip (ca. 6.0 mm long) was carefully inserted 0.8 mm deep into the subdural space. Rapid-curing cyanoacrylate glue (Histoacryl) was used to seal the burr hole and secure the position of the plastic tip. […]
The edema formation was assessed 24 hours after surgery. […] The wet weight of both hemispheres was determined and after drying for 24 hours at 110°C the dry weights were determined. Based on the increase in tissue water content, tissue swelling (i.e., increase in volume) may be calculated employing the following (modified) equation: (ΔDW(%))/(DWε)× 100(%Swelling) [formula] where DW % is the difference in tissue dry weight between the normal and edematous brain, and DW the dry weight (%) of the edematous brain.

MMP-9, sequence (P14780 94-707): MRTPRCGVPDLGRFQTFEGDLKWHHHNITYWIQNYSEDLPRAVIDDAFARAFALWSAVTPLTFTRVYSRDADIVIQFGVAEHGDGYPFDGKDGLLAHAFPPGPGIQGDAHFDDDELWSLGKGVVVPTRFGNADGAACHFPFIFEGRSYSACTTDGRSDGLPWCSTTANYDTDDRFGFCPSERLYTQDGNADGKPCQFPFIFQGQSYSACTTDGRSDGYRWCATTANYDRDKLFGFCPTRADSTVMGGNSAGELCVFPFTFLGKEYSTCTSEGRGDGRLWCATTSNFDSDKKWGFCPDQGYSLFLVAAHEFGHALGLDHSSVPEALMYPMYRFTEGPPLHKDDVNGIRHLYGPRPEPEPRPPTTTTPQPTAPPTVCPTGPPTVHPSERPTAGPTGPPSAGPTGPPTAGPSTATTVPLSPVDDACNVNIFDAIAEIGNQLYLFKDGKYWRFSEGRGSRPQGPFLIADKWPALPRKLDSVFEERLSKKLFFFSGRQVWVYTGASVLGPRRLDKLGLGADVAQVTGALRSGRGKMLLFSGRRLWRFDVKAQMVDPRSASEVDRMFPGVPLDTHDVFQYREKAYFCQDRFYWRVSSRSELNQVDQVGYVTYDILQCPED
MMP-3, sequence (P08254 100-274 limits assumed): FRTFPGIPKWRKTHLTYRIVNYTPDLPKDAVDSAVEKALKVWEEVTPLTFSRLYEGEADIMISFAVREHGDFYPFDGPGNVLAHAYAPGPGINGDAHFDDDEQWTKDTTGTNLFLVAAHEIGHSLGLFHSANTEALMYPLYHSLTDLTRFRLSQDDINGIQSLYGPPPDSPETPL

SMILES | pKi ([1]; read-out: MMP-3 Ki) | pKi [2] | pKi ([3]; read-out: MMP-9 Ki) | pKi ([4]; read-out: MMP-1 Ki) | pKi ([2]; read-out: MMP-2 Ki) | pKi [1] | pKi [3] | pKi [4] | reduced the increase in tissue water content [5]
CCOc1ccc(-c2ccc(C(=O)[C@H]3CC[C@@H](Sc4ccccc4)[C@@H]3C(=O)O)cc2)cc1 (racemic) [Example 1] | 7.70 | 9.34 | 7.82 | 5.43 | – | – | – | – | –
CCOc1ccc(-c2ccc(C(=O)CC(CCN3C(=O)c4ccccc4C3=O)C(=O)O)cc2)cc1 (racemic) [Example 3] | 7.85 | – | 9.11 | 5.47 | 8.96 | – | – | – | –
O=C(CC(CCn1nnc2ccccc2c1=O)C(=O)O)c1ccc(-c2ccc(Cl)cc2)cc1 (racemic) [Example 6] | – | – | – | – | 8.92 | 8.21 | 8.52 | 5.62 | –
O=C(CC(CCn1nnc2ccccc2c1=O)C(=O)O)c1ccc(-c2ccc(Cl)cc2)cc1 (single isomer, unassigned; (+)) [Example 5, (+)-4-(4'-Chloro-biphenyl-4-yl)-4-oxo-2-[2-(4-oxo-4H-benzo[d][1,2,3]triazin-3-yl)-ethyl]-butyricacid] | – | – | – | – | – | – | – | – | 38%
